Reference: US20120245137A1 (Zalicus Pharmaceuticals Ltd., priority 2009, published 2012)
Like-named read-outs stand apart in the source and are kept apart here.

Tests used:
Type in all cases: cell-based
T-type calcium channel [1] = target: T-type calcium channel (Homo sapiens, UniProt O95180); assay: T-type channel blocking, FLIPR data (Table 6)
Source text: (§1) Another method, high-throughput spectrophotometric assay, utilizes loading of the cell lines with a fluorescent dye sensitive to intracellular calcium concentration and subsequent examination of the effects of compounds on the ability of depolarization by potassium chloride or other means to alter intracellular calcium levels.

CAv1.2 [2] = target: T1, CAv1.2 (Homo sapiens, UniProt Q13936); assay: L-type (CAv1.2) channel blocking, FLIPR data (Table 6)
T1 sequence (Q13936 whole entry): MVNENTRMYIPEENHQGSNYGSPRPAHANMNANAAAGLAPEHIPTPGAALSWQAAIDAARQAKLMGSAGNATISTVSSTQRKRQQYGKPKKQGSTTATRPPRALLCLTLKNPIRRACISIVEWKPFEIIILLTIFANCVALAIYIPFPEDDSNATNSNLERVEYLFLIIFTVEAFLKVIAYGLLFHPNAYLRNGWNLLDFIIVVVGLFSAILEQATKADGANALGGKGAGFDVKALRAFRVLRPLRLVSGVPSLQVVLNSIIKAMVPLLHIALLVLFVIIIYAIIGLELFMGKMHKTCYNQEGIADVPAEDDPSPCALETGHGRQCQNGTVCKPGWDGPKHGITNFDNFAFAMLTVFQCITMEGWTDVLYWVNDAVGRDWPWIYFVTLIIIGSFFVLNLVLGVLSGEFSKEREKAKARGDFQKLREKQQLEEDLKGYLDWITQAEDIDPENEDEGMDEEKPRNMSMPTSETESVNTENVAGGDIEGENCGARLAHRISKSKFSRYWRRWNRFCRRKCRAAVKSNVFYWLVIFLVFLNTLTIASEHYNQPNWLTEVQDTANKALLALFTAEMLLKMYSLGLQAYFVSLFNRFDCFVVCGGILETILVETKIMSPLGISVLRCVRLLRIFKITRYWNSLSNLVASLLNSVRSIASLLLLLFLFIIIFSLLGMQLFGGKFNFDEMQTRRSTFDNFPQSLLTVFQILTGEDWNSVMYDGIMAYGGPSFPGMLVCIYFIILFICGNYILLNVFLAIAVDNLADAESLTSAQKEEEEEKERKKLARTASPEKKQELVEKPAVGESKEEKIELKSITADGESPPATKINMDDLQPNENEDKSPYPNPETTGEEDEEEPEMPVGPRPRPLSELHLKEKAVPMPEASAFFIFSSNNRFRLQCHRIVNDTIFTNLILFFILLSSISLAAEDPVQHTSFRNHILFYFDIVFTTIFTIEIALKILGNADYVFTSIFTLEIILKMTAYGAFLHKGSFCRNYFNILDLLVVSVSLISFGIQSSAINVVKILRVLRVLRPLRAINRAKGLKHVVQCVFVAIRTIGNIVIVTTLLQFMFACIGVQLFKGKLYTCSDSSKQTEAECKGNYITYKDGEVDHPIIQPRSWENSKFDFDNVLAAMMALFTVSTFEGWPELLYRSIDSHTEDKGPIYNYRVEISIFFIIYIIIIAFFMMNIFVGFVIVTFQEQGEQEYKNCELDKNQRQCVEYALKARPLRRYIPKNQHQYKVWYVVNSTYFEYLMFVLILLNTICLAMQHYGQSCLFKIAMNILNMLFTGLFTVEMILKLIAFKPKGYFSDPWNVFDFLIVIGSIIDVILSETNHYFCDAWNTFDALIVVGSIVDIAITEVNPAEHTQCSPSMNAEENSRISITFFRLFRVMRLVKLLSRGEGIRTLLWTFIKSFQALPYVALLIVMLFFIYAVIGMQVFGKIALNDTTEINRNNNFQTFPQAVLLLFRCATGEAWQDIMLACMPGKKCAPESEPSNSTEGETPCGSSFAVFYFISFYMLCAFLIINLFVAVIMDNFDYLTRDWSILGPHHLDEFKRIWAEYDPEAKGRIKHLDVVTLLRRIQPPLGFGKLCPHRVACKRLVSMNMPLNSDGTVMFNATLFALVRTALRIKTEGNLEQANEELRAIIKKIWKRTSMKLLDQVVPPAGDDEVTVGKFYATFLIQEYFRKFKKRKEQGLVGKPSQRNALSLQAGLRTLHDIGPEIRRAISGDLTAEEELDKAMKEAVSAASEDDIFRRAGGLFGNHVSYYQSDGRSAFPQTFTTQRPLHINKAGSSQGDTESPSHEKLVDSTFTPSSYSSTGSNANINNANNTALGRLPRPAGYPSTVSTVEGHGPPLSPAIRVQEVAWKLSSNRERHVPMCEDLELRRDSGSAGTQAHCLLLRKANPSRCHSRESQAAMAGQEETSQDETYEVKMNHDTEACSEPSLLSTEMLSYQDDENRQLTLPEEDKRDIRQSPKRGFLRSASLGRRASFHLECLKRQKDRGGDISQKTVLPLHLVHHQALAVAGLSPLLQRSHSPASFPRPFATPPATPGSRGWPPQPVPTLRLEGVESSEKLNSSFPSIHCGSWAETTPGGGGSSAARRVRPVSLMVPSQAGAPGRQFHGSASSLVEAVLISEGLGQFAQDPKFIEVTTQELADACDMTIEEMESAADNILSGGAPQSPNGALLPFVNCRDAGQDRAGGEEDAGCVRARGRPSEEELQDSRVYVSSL
T1 sequence (P54289 25-1103 partner): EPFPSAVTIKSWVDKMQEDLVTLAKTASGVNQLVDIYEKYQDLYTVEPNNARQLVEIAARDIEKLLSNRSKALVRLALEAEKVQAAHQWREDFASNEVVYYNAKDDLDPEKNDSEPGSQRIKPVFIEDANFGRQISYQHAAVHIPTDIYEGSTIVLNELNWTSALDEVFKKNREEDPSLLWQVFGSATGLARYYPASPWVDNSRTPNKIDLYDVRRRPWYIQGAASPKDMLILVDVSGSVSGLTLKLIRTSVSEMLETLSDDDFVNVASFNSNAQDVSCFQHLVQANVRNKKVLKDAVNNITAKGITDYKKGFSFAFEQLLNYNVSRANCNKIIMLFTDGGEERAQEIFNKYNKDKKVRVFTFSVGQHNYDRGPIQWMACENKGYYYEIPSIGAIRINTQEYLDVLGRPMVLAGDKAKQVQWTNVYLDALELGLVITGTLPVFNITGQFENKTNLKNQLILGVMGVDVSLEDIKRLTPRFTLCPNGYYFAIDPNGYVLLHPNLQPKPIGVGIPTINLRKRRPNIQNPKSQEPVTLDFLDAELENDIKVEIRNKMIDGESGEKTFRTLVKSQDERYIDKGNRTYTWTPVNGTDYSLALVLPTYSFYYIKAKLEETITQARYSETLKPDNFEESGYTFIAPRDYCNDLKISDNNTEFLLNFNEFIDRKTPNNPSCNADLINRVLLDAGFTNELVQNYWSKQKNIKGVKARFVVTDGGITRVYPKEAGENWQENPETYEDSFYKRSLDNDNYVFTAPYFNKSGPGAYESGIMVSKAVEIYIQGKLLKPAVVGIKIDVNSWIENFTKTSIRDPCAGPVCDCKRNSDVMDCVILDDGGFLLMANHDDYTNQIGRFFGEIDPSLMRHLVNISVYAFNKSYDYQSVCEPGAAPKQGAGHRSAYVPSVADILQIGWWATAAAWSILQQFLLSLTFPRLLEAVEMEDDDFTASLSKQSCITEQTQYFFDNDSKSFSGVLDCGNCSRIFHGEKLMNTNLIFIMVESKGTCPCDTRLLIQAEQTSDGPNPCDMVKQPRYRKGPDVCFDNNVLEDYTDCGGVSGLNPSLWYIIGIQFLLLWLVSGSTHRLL
T1 sequence (Q08289 whole entry partner): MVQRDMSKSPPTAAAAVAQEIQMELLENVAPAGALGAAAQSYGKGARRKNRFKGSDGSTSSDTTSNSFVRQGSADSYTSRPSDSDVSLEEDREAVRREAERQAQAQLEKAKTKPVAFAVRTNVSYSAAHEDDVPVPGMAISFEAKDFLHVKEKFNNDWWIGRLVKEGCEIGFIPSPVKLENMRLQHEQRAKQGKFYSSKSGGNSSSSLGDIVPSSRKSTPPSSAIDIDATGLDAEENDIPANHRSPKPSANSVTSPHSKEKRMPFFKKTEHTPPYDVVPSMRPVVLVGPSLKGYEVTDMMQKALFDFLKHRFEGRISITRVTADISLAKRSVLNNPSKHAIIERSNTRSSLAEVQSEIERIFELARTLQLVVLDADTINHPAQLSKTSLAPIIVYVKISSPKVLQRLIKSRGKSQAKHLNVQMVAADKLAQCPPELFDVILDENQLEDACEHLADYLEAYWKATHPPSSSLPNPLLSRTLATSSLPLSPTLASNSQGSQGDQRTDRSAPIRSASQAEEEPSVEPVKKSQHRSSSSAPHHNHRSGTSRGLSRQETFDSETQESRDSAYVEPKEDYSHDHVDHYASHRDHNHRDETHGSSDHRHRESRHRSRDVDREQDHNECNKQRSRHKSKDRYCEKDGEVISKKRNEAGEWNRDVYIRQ

Human Cav 2.2 channels = Human Cav 2.2 channels (Homo sapiens, UniProt Q00975); assay: Fluorescent assay for CaV2.2 channels using potassium depolarization (VIPR/FLIPR); conditions: FLIPR data
Method in brief: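 Fluo-4 calcium fluorescence (480/535 nm) was recorded on VIPR or FLIPR after depolarization to 70 mM final potassium. Before this, cells were preincubated 30 min at 25 °C with compound in 4–30 mM potassium, so that state-dependent block could be assessed; the cells were HEK293 coexpressing Cav2.2, α2δ, β and Kir2.3.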

T-type calcium channel [3] = target: T-type calcium channel (Homo sapiens, UniProt O43497); assay: T-type channel blocking, FLIPR data (Table 6); conditions: CAv3.1
Source text: as §1

CAv1.2 [4] = target: T1, CAv1.2; assay: FLIPR data, CAv1.2 channel blocking (Table 6); conditions: for CAv1.2 IC50 Ratio closed/inact.: ratio closed/inactivated IC50
[5] = CAv3.2, closed state, read-out: CAv3.2 IC50 Closed
[6] = closed state, read-out: CAv1.2 IC50 Closed
[7] = inactivated state, read-out: CAv1.2 IC50 Inact.
[8] = closed state, read-out: CAv2.2 IC50 Closed
[9] = inactivated state, read-out: CAv2.2 IC50 Inact.
[10] = CAv3.2, inactivated state, read-out: CAv3.2 IC50 Inact.
[11] = CAv3.2, ratio closed/inactivated IC50

Row | SMILES | IC50 (T-type calcium channel [1]; [5]) | IC50 (CAv1.2 [2]; [6]) | IC50 (CAv1.2 [2]; [7]) | IC50 (Human Cav 2.2 channels; [8]) | IC50 (Human Cav 2.2 channels; [9]) | CAv2.2 IC50 Ratio closed/inact. (Human Cav 2.2 channels; ratio closed/inact.) | IC50 (T-type calcium channel [3]) | IC50 (T-type calcium channel [1]; [10]) | CAv3.2 IC50 Ratio closed/inact. (T-type calcium channel [1]; CAv3.2, ratio closed/inact.) | CAv1.2 IC50 Ratio closed/inact. (CAv1.2 [2]) | CAv3.2 IC50 Ratio closed/inact. (T-type calcium channel [1]; [11]) | IC50 (CAv1.2 [4]; [6]) | IC50 (CAv1.2 [4]; [7]) | CAv1.2 IC50 Ratio closed/inact. (CAv1.2 [4]) | CAv2.2 IC50 Ratio closed/inact. (Human Cav 2.2 channels; ratio closed/inactivated IC50)
1 | N[C@@H]1CCCC[C@@H]1C(=O)NC[C@H]1C[C@H](S(=O)(=O)c2cccc(Cl)c2)C1 [Compound 780] | ≥ 10 µM | ≥ 10 µM | ≥ 10 µM | 10 µM | ≥ 10 µM | 1 | – | – | – | – | – | – | – | – | –
2 | CC(C)([C@H]1C[C@H](C(=O)Nc2ccc(C(F)(F)F)nc2)C1)S(=O)(=O)c1cccc(C(F)(F)F)c1 [Compound 760] | 4.62 µM | ≥ 10 µM | 3.55 µM | 2.87 µM | 0.19 µM | 15.1 | 2.8 µM | 0.73 µM | 6.3 | 2.8 | – | – | – | – | –
3 | Cn1nc(C(F)(F)F)cc1C(=O)N1CC(CS(=O)(=O)c2cc(F)cc(C(F)(F)F)c2)C1 [Compound 748] | ≥ 10 µM | ≥ 10 µM | ≥ 10 µM | 10 µM | 5.24 µM | 1.9 | ≥ 10 µM | 8.42 µM | 1.2 | – | – | – | – | – | –
4 | CC(C)([C@H]1C[C@H](C(=O)Nc2ccc(C(F)(F)F)cc2)C1)S(=O)(=O)c1cccc(C(F)(F)F)c1 [Compound 765] | 4.6 µM | 6.71 µM | 2.25 µM | 3.4 µM | 0.42 µM | 8.1 | 2.01 µM | 1.5 µM | 3.1 | 3 | – | – | – | – | –
5 | O=C(NC[C@H]1C[C@H](S(=O)(=O)c2cccc(Cl)c2)C1)c1ccc(C(F)(F)F)cc1 [Compound 771] | 5.44 µM | ≥ 10 µM | ≥ 10 µM | 10 µM | 2.01 µM | 5 | ≥ 10 µM | 3.04 µM | 1.8 | – | – | – | – | – | –
6 | CC(C)(C[C@H]1C[C@H](NC(=O)[C@H]2CCCC[C@@H]2N)C1)S(=O)(=O)c1cccc(C(F)(F)F)c1 [Compound 743] | – | ≥ 10 µM | ≥ 10 µM | 3.37 µM | 1.46 µM | 2.3 | – | 10 µM | – | – | – | – | – | – | –
7 | O=C(NC[C@H]1C[C@H](S(=O)(=O)c2cccc(Cl)c2)C1)c1ccc(Cl)cn1 [Compound 772] | ≥ 10 µM | ≥ 10 µM | – | – | 5.67 µM | 1.8 | – | 10 µM | 1 | – | – | – | – | – | –
8 | N[C@H]1CCCC[C@@H]1C(=O)NC[C@H]1C[C@H](S(=O)(=O)c2cccc(Cl)c2)C1 [Compound 779] | – | ≥ 10 µM | ≥ 10 µM | 10 µM | ≥ 10 µM | 1 | – | 10 µM | – | – | – | – | – | – | –
9 | O=S(=O)(c1cccc(OC(F)(F)F)c1)[C@H]1C[C@@H](CNc2ccnc(C(F)(F)F)n2)C1 [Compound 650] | 2.27 µM | – | – | 9.9 µM | 1.88 µM | – | 7.29 µM | 2.69 µM | – | – | 0.8 | 9.1 µM | 3.51 µM | 2.6 | 5.3
10 | CC(C)S(=O)(=O)c1cc(C(F)(F)F)cnc1C(=O)NC[C@H]1C[C@H](S(=O)(=O)c2cccc(Cl)c2)C1 [Compound 770] | ≥ 10 µM | ≥ 10 µM | ≥ 10 µM | 10 µM | 2.29 µM | 4.4 | – | 10 µM | 1 | – | – | – | – | – | –
11 | CC(C)([C@H]1C[C@@H](CNC(=O)c2ccc(Cl)c(OC(F)(F)F)c2)C1)S(=O)(=O)c1cccc(C(F)(F)F)c1 [Compound 688] | 0.45 µM | – | – | 3.4 µM | 0.22 µM | – | 0.25 µM | 0.17 µM | – | – | 2.6 | 4.59 µM | 0.45 µM | 10.2 | 15.5
12 | CC(C)([C@H]1C[C@H](NC(=O)c2ccc(C(F)(F)F)cc2S(C)(=O)=O)C1)S(=O)(=O)c1cccc(OC(F)(F)F)c1 [Compound 636] | 4.22 µM | – | – | 10 µM | 0.38 µM | – | 9.97 µM | 5.44 µM | – | – | 0.8 | ≥ 10 µM | 5.24 µM | 1.9 | 26.3
13 | CC(C)(C[C@H]1C[C@@H](NC(=O)c2ccc(Cl)cc2S(C)(=O)=O)C1)S(=O)(=O)c1cccc(C(F)(F)F)c1 [Compound 731] | 6.36 µM | – | – | 5.38 µM | 0.23 µM | – | ≥ 10 µM | 6.67 µM | – | – | 1 | ≥ 10 µM | ≥ 10 µM | – | 23.4
14 | CC(C)([C@H]1C[C@H](NC(=O)c2ccnc(C(F)(F)F)c2)C1)S(=O)(=O)c1cccc(C(F)(F)F)c1 [Compound 672] | 5.93 µM | – | – | 7.42 µM | 0.31 µM | – | 5.05 µM | 4.05 µM | – | – | 1.5 | ≥ 10 µM | 3.3 µM | 3 | 23.9
15 | CC(C)(C[C@H]1C[C@H](NC(=O)c2ccc(Cl)cc2S(C)(=O)=O)C1)S(=O)(=O)c1cccc(C(F)(F)F)c1 [Compound 718] | 5.68 µM | – | – | 4.71 µM | 0.15 µM | – | ≥ 10 µM | 3.67 µM | – | – | 1.5 | ≥ 10 µM | ≥ 10 µM | – | 31.4
16 | CC(C)([C@H]1C[C@H](NS(=O)(=O)c2ccc(F)c(Cl)c2)C1)S(=O)(=O)c1cccc(C(F)(F)F)c1 [Compound 664] | 3.08 µM | – | – | 8.05 µM | 1.06 µM | – | 2.93 µM | 2.79 µM | – | – | 1.1 | ≥ 10 µM | 3.67 µM | 2.7 | 7.6
17 | O=C(NC[C@H]1C[C@H](S(=O)(=O)c2cccc(Cl)c2)C1)c1ccc(C(F)(F)F)cn1 [Compound 774] | 6.63 µM | ≥ 10 µM | 6.45 µM | 9.98 µM | 4.32 µM | 2.3 | – | 10 µM | 0.7 | 1.6 | – | – | – | – | –
18 | CC(C)([C@H]1C[C@H](NC(=O)c2cncc(C(F)(F)F)c2)C1)S(=O)(=O)c1cccc(C(F)(F)F)c1 [Compound 671] | 5.73 µM | – | – | 5.47 µM | 0.28 µM | – | 9.28 µM | 6.36 µM | – | – | 0.9 | ≥ 10 µM | 7.82 µM | 1.3 | 19.5
